Data published in article PMC8395935 (Medical Sciences, 2021).

Tests used:
CD-1 mice [1] = experiment: Transcardiac brain perfusion (absence of serum factors) after chronic rapamycin treatment; details: rapamycin 8 mg/kg IP daily for 2 weeks
Description: (§1) The vehicle was prepared by creating a 1.2% DMSO solution in 5% Tween 80, 5% PEG 400.
Perfusate was collected throughout the study to determine the average cpm/µL of perfusate. After perfusion, the whole brain was weighed and the amount of radioactivity was counted in a gamma counter (Wizard2, PerkinElmer). The brain/perfusate ratios were calculated by dividing the cpm in a gram of brain by the cpm in a µL of perfusate to yield the units of µL/g.
(§2) The exposure time is calculated by the formula:(1) Exposure time=∫0tCptdt/Cpt where Cp(t) is the level of radioactivity (cpm) in the serum at time (t). The exposure time corrects for the clearance of peptide from the blood. […] The slope of the linearity measures the Ki and is reported with its standard error term. The y-intercept of the linearity measures the Vi, the initial volume of distribution in brain at t = 0 [11].

mice [2] = details: cited from earlier work
Source text: We observed a decrease in body weight only in males.

CD-1 mice [3] = experiment: Measurement of hormone levels in serum and brain lysate (Bio-Plex Pro Mouse Diabetes Assay); type: in vivo; details: 2 weeks rapamycin 8 mg/kg
Description: (§3) Following a 6 h fast, blood glucose was taken. The mice were anesthetized as described above, the thoracic cavity was opened, and blood was collected from the descending aorta. […] The brain vasculature was washed out by perfusing 20 mL of ice cold LR into the left ventricle of the heart. The brain was removed and split into the right and left hemispheres. The aorta was also removed. The blood was centrifuged at 5400 g for 10 min and the serum was collected. All the tissues were snap frozen in liquid nitrogen and stored at −80 °C until further processing.
(§4) The right hemisphere was crushed with a mortar and pestle in liquid nitrogen and approximately 100 mg of tissue was homogenized in radioimmunoprecipitation assay (RIPA) buffer (150 mM NaCl, 0.5% deoxycholic acid, 0.1% sodium dodecyl sulfate (SDS), 20 mM Tris HCl, and 2 mM ethylenediaminetetraacetic acid (EDTA)) plus freshly added 1/100 dilutions of a protease inhibitor cocktail (Sigma-Aldrich), 1mM sodium orthovanadate, and a phosphatase inhibitor (1 tablet PhosSTOP per 10 mL buffer) (Roche, Basel, Switzerland). The aortas were homogenized in the same lysis buffer. The samples were sonicated at 40% amplitude prior to centrifugation at 12,000× g for 10 min at 4 °C. The supernatants were collected and frozen at −80 °C. The protein was measured using the Pierce BCA Protein Assay Kit (Thermo Fisher Scientific, Rockford, IL, USA).
A panel of 8 metabolic hormones was measured in the brain lysate and serum using a Bio-Plex Pro Mouse Diabetes Assay (Bio-Rad Laboratories, Hercules, CA, USA): ghrelin, glucose-dependent insulinotropic peptide (GIP), glucagon-like peptide-1 (GLP-1), glucagon, insulin, leptin, plasminogen activator inhibitor-1 (PAI-1), and resistin. The serum was diluted 1:4 with the kit diluent. Twenty µg/µL protein lysate samples were measured from the right hemisphere. The samples were measured according to the manufacturer and read on a Bio-Plex 200 (Bio-Rad Laboratories).

CD-1 mice [4] = experiment: Intravenous injection study with multiple-time regression analysis after chronic rapamycin treatment; details: for Vi (125I-insulin vascular binding) / Ki (125I-insulin BBB transport): rapamycin 8 mg/kg IP daily for 2 weeks, i.v. tracer
Description: as §1
(§5) The blood glucose was measured via the tail vein (AlphaTrak2, Abbott Laboratories, Chicago, IL, USA). […] The radioactivity circulated for times between 1–10 min, after which the carotid artery was cut to collect blood. The mice were immediately decapitated and the whole brain was removed and weighed. The blood was centrifuged at 5400 g for 10 min and the amount of radioactivity in the serum (50 µL) and the whole brain was counted in a gamma counter (Wizard2, PerkinElmer, Waltham, MA, USA). Two separate cohorts of mice were combined in the final analyses. […] Naïve male mice were anesthetized as described.
as §2

CD-1 mice [5] = experiment: Serum triglyceride levels after chronic rapamycin treatment; type: in vivo; details: two-week rapamycin treatment 8 mg/kg IP daily; males and females; n = 4/group
CD-1 mice [6] = experiment: Body weight and fasting blood glucose after chronic rapamycin treatment; type: in vivo
Description: as §1, §5

CD-1 mice [7] = experiment: Measurement of serum cytokines (Bio-Plex Pro Mouse Cytokine Assay); type: in vivo; details: 2 weeks rapamycin 8 mg/kg
Description: as §3
A panel of 23 cytokines was measured in the brain protein lysate and serum using a mouse Bio-Plex Pro Mouse Cytokine Assay (Bio-Rad Laboratories): interleukin (IL)-1α; IL-1β; IL-2; IL-3; IL-4; IL-5; IL-6; IL-9; IL-10; IL-12(p40); IL-12(p70); IL-13; IL-17; eotaxin (CCL11); granulocyte colony-stimulating factor (G-CSF); granulocyte-macrophage colony-stimulating factor (GM-CSF); interferon (IFN)-γ; keratinocyte chemoattractant (KC) (CXCL1); monocyte chemoattractant protein (MCP)-1 (CCL2); macrophage inflammatory protein (MIP)-1α (CCL3); MIP-1β (CCL4); and regulated on activation, normal T cell expressed and secreted (RANTES; CCL5) and tumor necrosis factor (TNF)-α). The serum samples were diluted 1:4 with the kit sample diluent. The samples were measured according to the manufacturer and read on a Bio-Plex 200 (Bio-Rad Laboratories).

CD-1 mice [8] = experiment: Intravenous injection study with multiple-time regression analysis after an acute rapamycin i.v. injection; details: male CD-1 mice
Description: as §5, §2

aorta = experiment: Western immunoblotting of insulin signaling proteins in the aorta; type: in vivo, mice; details: 2 weeks rapamycin 8 mg/kg
Description: as §3
as §4, with “USA). […]” for “USA).”

[9] = following an 8 mg/kg body weight IP injection; cited from earlier work
mice [10] = details: cited from earlier work; remark: listed apart in the source
Source text: (§6) Triglycerides were one mechanism we hypothesized rapamycin could impact insulin BBB transport. […] A study in humans reported an increase in the serum triglyceride levels by approximately 47% follow ...

humans = details: 10 mg/day dose for 42 days as tolerated, patients with initial hyperlipidemic response; cited from earlier work
Source text: as §6

[11] = female CD-1 mice, transcardiac perfusion

CO[C@H]1C[C@@H]2CC[C@@H](C)[C@@](O)(O2)C(=O)C(=O)N2CCCC[C@H]2C(=O)O[C@H]([C@H](C)C[C@@H]2CC[C@@H](O)[C@H](OC)C2)CC(=O)[C@H](C)/C=C(\C)[C@@H](O)[C@@H](OC)C(=O)[C@H](C)C[C@H](C)/C=C/C=C/C=C/1C [Rapamycin]
Ki (125I-insulin BBB transport, absence of serum factors) (CD-1 mice [1]; [11]): 1.89 ± 0.63 µL/g/min
Vi (125I-insulin vascular binding, absence of serum factors) (CD-1 mice [1]; [11]): 8.3 ± 2.1 µL/g
Vi (125I-insulin vascular binding, absence of serum factors) (CD-1 mice [1]; male CD-1 mice, transcardiac perfusion): 8.0 ± 1.7 µL/g
Ki (125I-insulin BBB transport, absence of serum factors) (CD-1 mice [1]; male CD-1 mice, transcardiac perfusion 2 mL/min, 1-5 min, brain/perfusate ratio vs clock time): 1.35 ± 0.53 µL/g/min
glucose tolerance (mice [2]; 2 weeks of daily injections of a fourfold lower concentration than the current study): impair glucose tolerance
serum glucose levels (mice [2]; five weeks of daily rapamycin treatment, mice fasted overnight): increase
serum GLP-1 levels (CD-1 mice [3]; 6 h fast, treatment p = 0.015, n = 4/group): significantly increased
serum resistin levels (CD-1 mice [3]; males and females, 6 h fast, p < 0.0001, n = 4/group): significantly decreased
ghrelin, GIP, glucagon, or leptin levels (CD-1 mice [3]; serum, 6 h fast, n = 4/group): no effect
brain insulin levels (CD-1 mice [3]; whole brain lysate, treatment p = 0.034, post hoc p = 0.014, n = 3-4/group): significant differences in females only
Vi (125I-insulin vascular binding) (CD-1 mice [4]; female CD-1 mice): 9.9 ± 2.9 µL/g
Ki (125I-insulin BBB transport) (CD-1 mice [4]; female CD-1 mice, linear regression not significant (ns)): 0.73 ± 0.34 µL/g/min
Vi (125I-insulin vascular binding) (CD-1 mice [4]; male CD-1 mice): 4.0 ± 1.0 µL/g
Ki (125I-insulin BBB transport) (CD-1 mice [4]; male CD-1 mice, slope ± standard error, p = 0.055 vs vehicle): 1.32 ± 0.19 µL/g/min
vascular marker 99mTc-albumin (BBB integrity) (CD-1 mice [4]; two-week rapamycin treatment, data not shown): no effect
serum triglyceride levels (CD-1 mice [5]): did not elicit a significant change
body weight gain (CD-1 mice [6]; 2 weeks of rapamycin 8 mg/kg IP daily, males n = 24-34, females n = 18-19): impacted body weight gain in males only
fasting blood glucose levels (CD-1 mice [6]; females, 2 weeks rapamycin 8 mg/kg IP daily, 6 h fast, p = 0.19): did not have the same increase
mean fasting blood glucose levels (CD-1 mice [6]; males, 2 weeks rapamycin 8 mg/kg IP daily, 6 h fast, p < 0.001 vs vehicle (157 mg/dL), n = 12-16/group): 226 mg/dL
serum IL-2 levels (CD-1 mice [7]; 6 h fast, p = 0.009, n = 3/group): increased
serum IL-17 levels (CD-1 mice [7]; 6 h fast, p = 0.023, n = 3/group): increased
serum IL-3 levels (CD-1 mice [7]; 6 h fast, treatment p = 0.004, post hoc in males p = 0.007, n = 3/group): increased significantly
serum TNF-α, RANTES, and GM-CSF levels (CD-1 mice [7]; not statistically significant (0.05 < p < 0.07)): trend towards an increase
Ki (unidirectional influx of 125I-insulin from blood to brain) (CD-1 mice [8]; rapamycin 400 ng i.v. 10 min before 125I-insulin i.v., brain/serum ratio corrected with 99mTc-albumin, 1-10 min, slope ± standard error, gamma counter): 0.541 ± 0.13 µL/g/min
Vi (125I-insulin vascular binding) (CD-1 mice [8]; rapamycin 400 ng i.v. 10 min before 125I-insulin i.v., y-intercept of regression, p = 0.02 vs vehicle): 10.1 ± 1.3 µL/g
rate of insulin BBB transport (Ki) (CD-1 mice [8]; rapamycin 400 ng i.v. 10 min before tracer, p = 0.63 vs vehicle): 0.54 ± 0.1 µL/g/min
MAPK protein expression relative to β-actin (aorta; males and females, treatment p = 0.006, n = 3-4/group): significant increase
phosphorylated Akt (pAkt Ser473) relative to total Akt (aorta; only in males, interaction p = 0.0918, n = 3-4/group): trend in decreased levels
blood rapamycin levels [9]: 100 ng/mL
increase in serum triglyceride levels (mice [10]; growth hormone receptor knockout male mice, 4 mg/kg every other day for 20 weeks): approximately 12%
serum triglyceride levels (mice [10]; mice fed rapamycin orally): no differences were observed
increase in serum triglyceride levels (humans): approximately 47%
